We go through one compound from patent US6825340B2, “Methods and reagents for inactivating ribonucleases” (Ambion, Inc., priority 1998, dated 2004).

In data set [1] the test system is RNase mixture (RNase A, RNase 1, RNase T1). As to the kind of experiment: Isotopic RNase inactivation assay (radioactive RNA probe, acrylamide gel). The class given is biochemical, human, E. coli and a fungus. The settings on record: 20 mM DTT, 60° C. for 20 minutes. Here is the method: FIG. 1. DTT-heat inactivation of different RNase concentrations. The RNase mixture was made to different concentrations in 20 mM DTT: 1 mM sodium citrate (pH 6.4). The RNase samples were incubated at 60° C. for 20 minutes. A radioactive RNA probe was added to the treated RNase samples, incubated at 37° C. for 16 hours, fractionated in a denaturing 5% acrylamide gel and exposed to x-ray film.
The inventors routinely perform assays on RNA designed to assess RNase activity in a sample. Two different assays are typically used for the detection of ribonuclease activity, non-isotopic and isotopic. Each assay generates similar data with regard to the sensitivity of detection. In both assays, the inactivation process is typically performed on a mixture of three different ribonucleases: RNase A, RNase 1, and RNase T1. Each ribonuclease is purified from a different species: […], E. coli and a fungus, respectively. The three RNases are very different from each other in their origin, substrate specificity and protein sequence. In this way, the inactivation process can test three completely different but well characterized ribonucleases. The standard stock RNase mixture employed in the following examples is prepared by combining 1 μl RNase 1 (100 U/μl; Ambion), 1 μl RNase cocktail (RNase A, 0.5 U/μl; RNase T1, 20 U/μl, Ambion) and 98 μl water. […]

Data set [2] has as its target DNase I (Bos taurus, UniProt P00639). The data set can be described thus: DNase I activity after reducing/heat treatment, plasmid DNA degradation. The class given is biochemical. The following applies: 20 mM reducing reagent in water; DNase I 0.4 units/μl; 60° C. for 20 minutes. The method, then:
DNase I is commonly used to degrade contaminating DNA in RNA preparations. To test whether the inactivation method affected DNase I activity, DNase I (final concentration of 0.4 units/μl) was added to water containing 20 mM DTT, DTE or β-mercaptoethanol. The mixture was incubated at 60° C. for 20 minutes. After the heat treatment, the DNase I activity was tested by incubating the treated DNase I with plasmid DNA (0.2 μg/μl ) at 37° C. for one hour followed by electrophoresis in a 1% agarose gel.

The test system of data set [3] is unknown RNase in psoralen biotin. The data set can be described thus: Integrity of psoralen biotin labeled Millennium Markers after 37° C., 16 hours. The class given is biochemical. The settings on record: 5 mM DTT; 90° C. for 10 minutes; then 37° C. for 16 hours. The method, then:
The Millennium™ Markers (Ambion, Inc.) are a set of RNA size markers from 0.5 to 9 kb in length. They are used for determining the length of an unknown RNA. These markers were being labeled with biotin using a psoralen biotin labeling procedure so that they could be detected non-isotopically on a nylon membrane. However, if the Millennium™Markers were incubated at 37° C. for 16 hours after labeling with the psoralen biotin, they were degraded.

For data set [4], the target named is T1, RNase A (Bos taurus, UniProt P61823).
T1 sequence (P61823 27-150): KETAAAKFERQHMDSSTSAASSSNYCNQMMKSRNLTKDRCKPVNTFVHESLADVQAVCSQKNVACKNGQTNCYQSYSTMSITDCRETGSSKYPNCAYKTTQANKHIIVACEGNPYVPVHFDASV
The following applies: RNase A 10 μg/ml; 4 mM DTT; 4° C. for 20 minutes; cited from earlier work.

Data set [5] concerns the target T1, RNase A. The data set can be described thus: RNase A inactivation, mouse total RNA on agarose formaldehyde gel. The class given is biochemical. Here is the method:
The non-isotopic assay uses total RNA isolated from mouse as the substrate for the RNase mixture. […] A quantity of 4 μg of total RNA isolated from mouse liver or brain was dissolved in an aqueous solution, usually water or 1 mM sodium citrate (pH 6.6). The treated ribonuclease sample was added to the total RNA and then incubated at 37° C. for 1 or 16 hours, depending on the sensitivity desired for the assay. After incubation, the RNA was fractionated in a formaldehyde 1% agarose gel. The RNA was detected by staining with ethidium bromide and then illuminating the gel with ultraviolet light. The RNA fluoresces in the gel. Untreated total RNA was also fractionated as a control with the test samples for comparative purposes. […] Intact total RNA has two major bands produced by the 28S and 18S ribosomal RNA. […] RNase A, at 200 ng/ml instead of 10 μg/ml, was treated with or without 4 mM DTT in Boshes' solution A at 4° C. for 20 minutes. RNase A activity was then tested by incubating mouse liver total RNA with the treated RNase A at 37° C. for 60 minutes. The mouse RNA was then fractionated by electrophoresis in a 1% agarose formaldehyde gel. […] RNase A was diluted to 154 ng/ml in 1 mM sodium citrate (pH 6.4) or in Boshes' (1970) buffer A. DTT was added to the samples to 4 mM or 20 mM and then incubated at 4° C. or 60° C. for 20 minutes.

For data set [6] the following is noted: pH 7.0; cited from earlier work.

Sequence of DNase I (P00639 23-282): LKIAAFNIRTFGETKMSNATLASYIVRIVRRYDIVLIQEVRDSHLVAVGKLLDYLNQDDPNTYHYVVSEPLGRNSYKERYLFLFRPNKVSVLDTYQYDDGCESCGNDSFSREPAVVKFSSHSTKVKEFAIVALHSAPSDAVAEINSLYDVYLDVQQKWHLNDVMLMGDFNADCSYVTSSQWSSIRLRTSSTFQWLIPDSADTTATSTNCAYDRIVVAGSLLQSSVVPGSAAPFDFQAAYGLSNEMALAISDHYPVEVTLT

For the compound `O[C@H](CS)[C@H](O)CS` [DTT, dithiothreitol], in data set [1] (1 mM sodium citrate (pH 6.4), isotopic assay), the “concentration of RNase mixture completely inactivated” value is “up to 200 ng/ml”. Also, in data set [1] (RNase mixture 200 ng/ml, 17 solutions, isotopic), the “RNase inactivation in different buffers and solutions” value is “inactivated RNase activity in all of buffers and solutions tested”. For the same compound, the “DNase I activity after reducing/heat treatment” value in data set [2] is given as “not affected”. The “integrity of psoralen biotin labeled Millennium Markers” value in data set [3] is recorded as “remained intact”. The “RNase A activity (Boshes, 1970)” value in data set [4] was “inhibited”. Besides, the “RNase A inactivation” value is on record as “not inactivated” in data set [5] (RNase A 154 ng/ml, 4 mM DTT, 4° C. for 20 minutes); “completely inactivated” in data set [5] (RNase A 154 ng/ml, 4 mM DTT, 60° C. for 20 minutes); “not inactivated” in data set [5] (RNase A 154 ng/ml, 20 mM DTT, 4° C. for 20 minutes); “completely inactivated” in data set [5] (RNase A 154 ng/ml, 20 mM DTT, 60° C. for 20 minutes); “not inactivated” in data set [5] (RNase A 200 ng/ml, 4 mM DTT, Boshes' solution A, 4° C. for 20 minutes); “completely inactivated” in data set [5] (RNase A, 20 mM DTT, 60° C. for 20 minutes). The redox potential in data set [6] was −0.33 volts.
